Experimental data as given in patent US20250213558A1, “T-TYPE CALCIUM CHANNEL MODULATORS COMPRISING A PIPERAZINE OR 1,4-DIAZEPANE CORE AND METHODS OF USE THEREOF” (Praxis Precision Medicines, Inc., priority 2022, published 2025).
pIC50: −log10 of the molar value. Where two headings read alike, the source gives them in different places.

Molecular target: T1, Human Cav3.1 calcium channel (Homo sapiens, UniProt O43497)
T1 construct: expressed in transfected cells; host or cells: HEK-293 natClytin/TASK1+Cav3.1 cell line
T1 sequence (O43497 whole entry): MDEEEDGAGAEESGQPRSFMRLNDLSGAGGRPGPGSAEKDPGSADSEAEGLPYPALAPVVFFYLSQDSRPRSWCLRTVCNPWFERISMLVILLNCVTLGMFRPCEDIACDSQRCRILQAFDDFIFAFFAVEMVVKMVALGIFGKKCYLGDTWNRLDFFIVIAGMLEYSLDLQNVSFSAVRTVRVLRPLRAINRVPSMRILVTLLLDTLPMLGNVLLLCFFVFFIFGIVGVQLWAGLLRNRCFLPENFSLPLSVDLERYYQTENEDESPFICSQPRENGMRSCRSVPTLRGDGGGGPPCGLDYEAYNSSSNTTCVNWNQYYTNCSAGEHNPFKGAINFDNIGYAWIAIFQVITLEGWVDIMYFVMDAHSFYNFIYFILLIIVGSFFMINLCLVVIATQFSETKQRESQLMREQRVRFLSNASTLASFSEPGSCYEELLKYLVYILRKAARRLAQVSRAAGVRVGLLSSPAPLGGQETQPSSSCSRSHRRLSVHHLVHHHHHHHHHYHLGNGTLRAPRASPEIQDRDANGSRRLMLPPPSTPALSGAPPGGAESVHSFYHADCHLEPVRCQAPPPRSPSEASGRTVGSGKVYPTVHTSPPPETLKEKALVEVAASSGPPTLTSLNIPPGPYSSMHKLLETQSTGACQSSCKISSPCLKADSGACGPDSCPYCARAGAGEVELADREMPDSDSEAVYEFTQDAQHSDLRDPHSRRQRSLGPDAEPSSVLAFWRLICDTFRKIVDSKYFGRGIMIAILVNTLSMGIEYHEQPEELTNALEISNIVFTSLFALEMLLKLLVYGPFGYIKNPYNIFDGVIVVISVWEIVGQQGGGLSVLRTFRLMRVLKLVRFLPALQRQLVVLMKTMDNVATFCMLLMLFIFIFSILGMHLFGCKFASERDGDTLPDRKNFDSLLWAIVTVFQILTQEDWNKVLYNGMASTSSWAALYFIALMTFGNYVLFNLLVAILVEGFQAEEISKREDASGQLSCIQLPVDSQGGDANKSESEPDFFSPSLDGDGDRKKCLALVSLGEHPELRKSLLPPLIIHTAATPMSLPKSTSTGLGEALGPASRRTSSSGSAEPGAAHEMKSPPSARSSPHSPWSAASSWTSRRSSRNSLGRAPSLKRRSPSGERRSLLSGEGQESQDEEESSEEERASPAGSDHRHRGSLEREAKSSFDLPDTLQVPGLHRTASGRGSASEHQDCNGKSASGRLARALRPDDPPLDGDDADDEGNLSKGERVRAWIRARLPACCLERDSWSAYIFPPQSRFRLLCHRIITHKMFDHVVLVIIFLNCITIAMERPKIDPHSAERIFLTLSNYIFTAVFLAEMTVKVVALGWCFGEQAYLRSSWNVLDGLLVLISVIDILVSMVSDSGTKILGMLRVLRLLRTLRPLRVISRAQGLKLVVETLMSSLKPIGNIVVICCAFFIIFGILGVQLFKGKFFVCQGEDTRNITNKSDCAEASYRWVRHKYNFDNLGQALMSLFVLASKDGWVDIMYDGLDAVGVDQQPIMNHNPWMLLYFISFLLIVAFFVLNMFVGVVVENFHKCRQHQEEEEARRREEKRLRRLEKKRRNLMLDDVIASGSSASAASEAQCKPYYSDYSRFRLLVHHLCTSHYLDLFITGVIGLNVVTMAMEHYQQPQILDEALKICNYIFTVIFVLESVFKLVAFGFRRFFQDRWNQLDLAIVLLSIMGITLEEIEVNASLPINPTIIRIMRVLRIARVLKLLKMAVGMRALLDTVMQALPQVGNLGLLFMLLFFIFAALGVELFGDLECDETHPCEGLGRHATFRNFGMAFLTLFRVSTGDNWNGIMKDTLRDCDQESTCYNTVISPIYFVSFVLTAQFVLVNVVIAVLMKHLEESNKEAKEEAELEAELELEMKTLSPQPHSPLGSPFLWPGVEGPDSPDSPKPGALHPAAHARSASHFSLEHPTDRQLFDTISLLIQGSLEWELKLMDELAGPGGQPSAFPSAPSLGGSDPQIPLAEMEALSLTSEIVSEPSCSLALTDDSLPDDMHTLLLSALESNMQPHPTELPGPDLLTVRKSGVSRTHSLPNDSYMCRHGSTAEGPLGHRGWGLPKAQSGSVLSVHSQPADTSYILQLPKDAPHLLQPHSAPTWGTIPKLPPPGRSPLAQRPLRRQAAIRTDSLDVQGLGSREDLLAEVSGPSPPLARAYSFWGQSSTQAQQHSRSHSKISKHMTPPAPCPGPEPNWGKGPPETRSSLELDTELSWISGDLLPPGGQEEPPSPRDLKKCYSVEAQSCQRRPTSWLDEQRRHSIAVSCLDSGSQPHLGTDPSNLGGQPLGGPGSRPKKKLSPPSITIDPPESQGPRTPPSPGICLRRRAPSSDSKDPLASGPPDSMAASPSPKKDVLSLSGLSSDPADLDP
Assay: Human Cav3.1 calcium channel patch clamp assay (SyncroPatch 384PE; single point and IC50, voltage dependent block)
Type: cell-based
Settings: for % Inhibition (Single Point Data): patch clamp
Procedure, shortened: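 Automated whole-cell patch clamp at room temperature, cells held at −120 mV; 100 ms step to −20 mV (resting block), then 1600 ms at −65 mV and a second −20 mV step (voltage-dependent block), every 15 s. Peak currents averaged over last 3 sweeps; % inhibition relative to nickel-sensitive current.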

[1] = Testing Conc 1.25, HEK-293 natClytin/TASK1+Cav3.1 cell line
[2] = voltage dependent block (VDB), HEK-293 natClytin/TASK1+Cav3.1 cell line, read-out: Cav3.1 IC50
[3] = Testing Conc 1, HEK-293 natClytin/TASK1+Cav3.1 cell line

pIC50 [2] | % Inhibition (Single Point Data) [3] [%] | SMILES | % Inhibition (Single Point Data) [1] [%] | pIC50
 |  | CC(C)(C)NC(=O)CN1CC2CC1CN2Cc1nc2c(Cl)cc(F)cc2[nH]1 (centres unmarked) [Compound 126] | 94.215 | 
6.35 |  | Cc1cc(NC(=O)CN2C[C@@H]3C[C@H]2CN3CC(=O)NC(C)(C)C)ccc1F [Compound 341] | 62.973 | 
5.99 |  | O=C(CN1C[C@H]2C[C@@H]1CN2CC(=O)NC1(C(F)(F)F)CC1)Nc1cc(F)cc(Cl)c1 [Compound 20] | 56.816 | 
 | 25.144 | CC(C)(C)NC(=O)CN1CCC(=O)N(CC(=O)Nc2cc(F)cc(Cl)c2)CC1 [Compound 37] |  | 
5.35 |  | Cc1ccc2ccnc(NCC3CCN(CC(=O)NC(C)(C)C)CC3)c2n1 [Compound 102] | 25.803 | 
6.64 |  | CC(C)(C)NC(=O)CN1CC2CC1CN2CC(=O)Nc1ccc(F)c(Cl)c1 (centres unmarked) [Compound 233] | 83.643 | 
> 7.11 |  | Fc1ccc(Cl)c2nc(CN3CCN(CC(F)C4CCCCC4)CC3)[nH]c12 (centres unmarked) [Compound 161] | 95.402 | 
6.00 |  | CC(C)(NC(=O)CN1CCN(CC(=O)Nc2cc(F)cc(OC(F)F)c2)CC1)C(F)(F)F [Compound 53] | 57.147 | 
 |  | CC(C)(C)NC(=O)CN1C2CCC1CN(Cc1nc3c(Cl)cc(F)cc3[nH]1)C2 [Compound 64] | 100.15 | > 7.11
 |  | CC(C)(C)NC(=O)CN1C2CC1CN(C(=O)NCC13CC4CC(CC(C4)C1)C3)C2 [Compound 295] | 0.753 | 
 |  | O=C(CN1C2CCC1CN(Cc1nc3c(Cl)cc(F)cc3[nH]1)C2)N1CCC(F)(F)CC1 [Compound 81] | 100.06 | 
 |  | CC(C)(C)NC(=O)CN1C2CCC1CN(Cc1ncc3ccccc3n1)C2 [Compound 186] | 5.7091 | 
5.40 |  | O=C(CN1C[C@@H]2C[C@H]1CN2CC1(F)CCC(F)(F)CC1)NC12CC3CC(CC(C3)C1)C2 [Compound 279] | 79.691 | 
6.21 |  | CC(C)(C)NC(=O)CN1C[C@@H]2C[C@H]1CN2CC(=O)NC12CC3CC(CC(F)(C3)C1)C2 [Compound 300] | 65.343 | 
5.71 |  | CC(C)(C)NC(=O)CN1C[C@@H]2C[C@H]1CN2CC(=O)NC1CCCC(OC(F)F)C1 (some centres unmarked) [Compound 343] | 32.872 | 
6.79 |  | CC(C)(C)NC(=O)CN1C[C@H]2COC[C@@H](C1)[C@@H]2CC(=O)Nc1cc(F)cc(Cl)c1 [Compound 372] |  | 
 |  | CC(C)(C)NC(=O)CN1C2CCC1CN(CC(=O)NCc1cc3ccccc3o1)C2 [Compound 5] | 22.469 | 
6.13 |  | C[C@H](NC(=O)CN1C[C@@H]2C[C@H]1CN2CC(=O)NC(C)(C)C)C12CC3CC(CC(C3)C1)C2 [Compound 326] | 66.987 | 
6.40 |  | Fc1cc(Cl)c2nc(CN3CCN(CCc4ccccc4)CC3)[nH]c2c1 [Compound 69] | 86.68 | 
5.97 |  | Cc1ccc(NC(=O)CN2C[C@@H]3C[C@H]2CN3CC(=O)NC2(C(F)(F)F)CC2)cc1Cl [Compound 355] |  | 

pIC50 [2] | % Inhibition (Single Point Data) [3] [%] | SMILES | % Inhibition (Single Point Data) [1] [%] | pIC50
 |  | CC(C)(NC(=O)CN1CC2CC1CN2CC(=O)Nc1cc(F)cc(OC(F)F)c1)C(F)(F)F (centres unmarked) [Compound 55] | 76.829 | 
6.60 |  | OC1(CN2CCN(Cc3nc4c(Cl)ccc(F)c4[nH]3)CC2)CCC(F)(F)CC1 [Compound 159] | 76.669 | 
5.47 |  | CC(C)(C)NC(=O)CN1C[C@@H]2C[C@H]1CN2CCNC(=O)C12CC3CC(CC(C3)C1)C2 [Compound 323] | 17.66 | 
 |  | COc1cc(F)cc2[nH]c(CN3CC4CC(C3)N4CC(=O)NC(C)(C)C)nc12 [Compound 164] | 84.695 | 
 |  | OC(CN1C2CC1CN(Cc1nc3c(Cl)cc(F)cc3[nH]1)C2)C1CCCCC1 (centres unmarked) [Compound 147] | 99.075 | 
 |  | CN(C(=O)CN1C2CC1CN(Cc1nc3c(Cl)cc(F)cc3[nH]1)C2)C1CCCC1 [Compound 110] | 91.767 | > 7.11
6.80 |  | O=C(CN1CC2CC1CN2CCNC(=O)C1(C(F)(F)F)CC1)Nc1cc(F)cc(Cl)c1 (centres unmarked) [Compound 227] | 78.995 | 
6.76 |  | O=C(CN1C[C@@H]2C[C@H]1CN2CC(=O)NC1(C(F)(F)F)CC1)Nc1ccc(Cl)c(OC(F)F)c1 [Compound 358] |  | 
 |  | CC1(CCN2C3CC2CN(Cc2nc4c(Cl)cc(F)cc4[nH]2)C3)CCC1 [Compound 109] | 98.531 | 
6.34 |  | CC(C)(NC(=O)CN1C[C@H]2C[C@@H]1CN2CC(=O)Nc1ccc(F)c(Cl)c1)C(F)(F)F [Compound 27] | 69.274 | 
5.80 |  | O=C(CN1C[C@H]2C[C@@H]1CN2CC(=O)NC1(C(F)(F)F)CC1)Nc1ccc(F)c(Cl)c1 [Compound 28] | 39.491 | 
6.43 |  | Fc1ccc(Cl)c2nc(CN3CCN(CC4(F)CCC(F)(F)CC4)CC3)[nH]c12 [Compound 155] | 80.753 | 
6.39 | 75.738 | CC(C)(C)NC(=O)CN1CCN(Cc2cnc(-c3cc(F)cc(Cl)c3)[nH]2)CC1 [Compound 31, N-tert-butyl-2-[4-[[2-(3-chloro-5-fluoro-phenyl)-1H-imidazol-5-yl]methyl]piperazin-1-yl]acetamide] |  | 
 |  | CC(C)(C)NC(=O)CN1C[C@@H]2C[C@H]1CN2CC(=O)NC12CC3CC(CC(O)(C3)C1)C2 [Compound 312] | 4.6566 | 
 |  | CC1(C(=O)NCCN2C3CC2CN(Cc2nc4c(Cl)cc(F)cc4[nH]2)C3)CCC1 [Compound 137] | 96.095 | > 7.11
 | 30.86 | O=C(CN1CCN(CCC2CCOCC2)CC1=O)Nc1cc(F)cc(Cl)c1 [Compound 38] |  | 
5.48 |  | O=C(CN1C[C@@H]2C[C@H]1CN2CCC1CCOCC1)NC12CC3CC(CC(C3)C1)C2 [Compound 291] | 18.238 | 
 |  | Fc1cc(Cl)c2nc(CN3CC4CCC(C3)N4CCOC3CCCCC3)[nH]c2c1 [Compound 95] | 100.41 | 
5.30 |  | CC(C)(C)NC(=O)CN1C[C@@H]2C[C@H]1CN2CC(=O)NC1CCCCC1 [Compound 289] | 36.292 | 
5.90 |  | O=C(CN1CC2CC1CN2CC(=O)NC1(C(F)(F)F)CC1)Nc1cc(F)cc(Cl)c1 (centres unmarked) [Compound 223] | 75.83 | 

SMILES | pIC50 [2] | % Inhibition (Single Point Data) [3] [%] | % Inhibition (Single Point Data) [1] [%] | pIC50
CC(C)(C)NC(=O)CN1C2CC1CN(CC(=O)NC13CC4CC(CC(Cl)(C4)C1)C3)C2 [Compound 345] | 5.93 |  | 42.634 | 
CC1(NC(=O)CN2C3CC2CN(CC(=O)Nc2ccc(F)c(Cl)c2)C3)CC1 [Compound 239] | 6.23 |  | 58.273 | 
Cc1cc(F)cc(NC(=O)CN2CC3CC(C2)N3CC(=O)NC2(C(F)(F)F)CC2)c1 [Compound 335] | 6.47 |  | 84.646 | 
O=C(CN1C2CCC1CN(Cc1nc3c(Cl)cc(F)cc3[nH]1)C2)N1CCOCC1 [Compound 83] | 6.36 |  | 84.836 | 
O=C(CN1CC2CC(C1)N2CC(=O)NC1(C(F)(F)F)CC1)NC12CC3CC(CC(C3)C1)C2 [Compound 281] | 6.05 |  | 54.316 | 
Cc1cc(F)cc2[nH]c(CN3CC4CCC(C3)N4CC(=O)NC(C)(C)C)nc12 [Compound 190] | 6.68 |  | 94.944 | 
Cc1cccc2[nH]c(C(C)N3CC4CC(C3)N4CC(=O)NC(C)(C)C)nc12 (centres unmarked) [Compound 199] | 6.06 |  | 54.078 | 
Cc1cccc2[nH]c(C(C)N3CC4CCC(C3)N4CC(=O)NC(C)(C)C)nc12 (centres unmarked) [Compound 198] | 6.38 |  | 71.858 | 
N#CC1(CN2C3CC2CN(Cc2nc4c(Cl)ccc(F)c4[nH]2)C3)CCC(F)(F)CC1 [Compound 179] | 5.71 |  | 32.612 | 
CC(C)(NC(=O)CN1C2CC1CN(Cc1nc3c(F)ccc(F)c3[nH]1)C2)C(F)(F)F [Compound 166] | 6.60 |  | 87.157 | 
Fc1ccc(Cl)c2nc(CN3CC4CC(C3)N4CC(F)(F)C3CCCCC3)[nH]c12 [Compound 176] | 6.89 |  | 83.015 | 
CC(C(=O)Nc1ccc(F)c(Cl)c1)N1CC2CC(C1)N2CC(=O)NC1(C(F)(F)F)CC1 (centres unmarked) [Compound 30] | 6.15 |  | 63.42 | 
CC(C)(NC(=O)CN1C2CC1CN(CC(=O)Nc1cc(F)cc(Cl)c1)C2)C(F)(F)F [Compound 129] | 6.65 |  | 89.48 | 
O=C(CN1CC2CC(C1)N2CCC1CCOCC1)NC12CC3CC(CC(C3)C1)C2 [Compound 292] | 5.32 |  | 11.934 | 
COc1cc(NC(=O)CN2CC3CC(C2)N3CC(=O)NC(C)(C)C)cc(F)c1F [Compound 353] | 7.01 |  |  | 
COc1cccc2[nH]c(CN3CC4CCC(C3)N4CC(=O)NC(C)(C)C)nc12 [Compound 192] | 6.48 |  | 76.034 | 
COC(=O)C(C)(C)N(C)C(=O)CN1C2CCC1CN(Cc1nc3c(Cl)cc(F)cc3[nH]1)C2 [Compound 85] | 6.43 |  | 66.404 | 
CC(C)(C)OC(=O)CN1C2CC1CN(Cc1nc3c(Cl)cc(F)cc3[nH]1)C2 [Compound 139] | 6.82 |  | 92.564 | 
CC1(C)CCC(=O)N1CCN1C2CC1CN(Cc1nc3c(Cl)cc(F)cc3[nH]1)C2 [Compound 150] | 6.19 |  | 66.439 | 
